Experimental data reported in US20180125774A1, “Method and Composition for Visible Light Dryable Nail Coatings” (priority 2016, published 2018).

Columns and labels:
Type in all cases: physicochemical
[1] = Solubility of visible light photo-initiator A in solvents; conditions: 25° C.
Description: The following table 2 lists the solubility of the visible light photo-initiator A of the first preferred embodiment of the visible light dryable nail coating according to this present invention.

[2] = Stability (thermal, light, oxidation in air) as described
Description: Any one of several photo-initiators is used in the present invention, wherein the photo-initiators can be either component (A): visible light photo-initiator A or component (B): visible light photo-initiator B. Visible light photo-initiator A is, but not limited to, Bis (η5-2,4-cylcopentadian-1-yl)-bis (2,6-di-fluoro-3-(1H-pyrrol-1-yl) phenyl) titanium. […] More specifically, visible light photo-initiator A is particularly suitable for the curing of photopolymers for imaging or information storage applications where extremely high photosensitivity is required.
It is worth to mention that visible light photo-initiator A is sensitive to visible light and any exposure to sunlight must be avoided. And, the visible light photo-initiator A must be stored in low temperature, which is below 25° C., and dry environment. […] Therefore, opened drums are required to close after use to protect the product against light.
Accordingly, visible light photo-initiator B is, but not limited to, 4,4′-Bis (diethylamino) benzophenone. Visible light photo-initiator B is both an aromatic ketone and a tertiary amine, and acts both as a photosensitizer and an amine synergist.

[3] = Solubility of visible light photo-initiator B in solvents; conditions: 20° C.
Description: The following table 5 lists the solubility of the visible light photo-initiator B of the first preferred embodiment of the visible light dryable nail coating according to this present invention.

[4] = Specification solubility test in acetone
Description: The following table 4 lists the specification of the visible light photo-initiator B of the first preferred embodiment of the visible light dryable nail coating according to this present invention.

Compound	Solubility ([1]; Acetone) [g in 100 ml solvent]	Solubility ([1]; Butyl Acetate) [g in 100 ml solvent]	Solubility ([1]; HDDA) [g in 100 ml solvent]	Solubility ([1]; MEK) [g in 100 ml solvent]	Solubility ([1]; Toluene) [g in 100 ml solvent]	Solubility ([1]; Water) [g in 100 ml solvent]	Thermal stability [2]	Light sensitivity ([2]; dissolved in a solvent or a formulation, daylight and standard fluorescence bulbs)	Solubility ([3]; Acetone) [% w/w]	Solubility ([3]; Butyl Acetate) [% w/w]	Solubility ([3]; Ethyl acetate) [% w/w]	Solubility ([3]; Methanol) [% w/w]	Solubility ([3]; Toluene) [% w/w]	Solubility ([3]; Water) [% w/w]	Solubility (3 g/10 mL Acetone) [4]	Resistance to oxidation ([2]; exposure in air, versus most commercially available EMK)
Fc1ccc(-n2cccc2)c(F)[c]1[Ti+2][c]1c(F)ccc(-n2cccc2)c1F.c1cc[cH-]c1.c1cc[cH-]c1 [visible light photo-initiator A, Bis (η5-2,4-cylcopentadian-1-yl)-bis (2,6-di-fluoro-3-(1H-pyrrol-1-yl)phenyl) titanium]	30	2	10	30	10	<0.5	good thermal stability	extremely sensitive to daylight and light from standard fluorescence bulbs	–	–	–	–	–	–	–	–
CCN(CC)c1ccc(C(=O)c2ccc(N(CC)CC)cc2)cc1 [visible light photo-initiator B, 4,4′-Bis (diethylamino) benzophenone]	–	–	–	–	–	–	–	–	30	30	24	7.0	25	<0.01	Clear solution	more resistant to oxidation by exposure in air than most commercially available EMK
